{"source": "patent US8247435B2", "about": "“Formulations for treating human and animal diseases” (priority 2009, dated 2012)", "origin": "cited, not measured here", "key": {"[1]": {"conditions": "300 mg/day, 4 months"}, "[2]": {"conditions": "highest dose 3000 mg/day"}, "[3]": {"conditions": "oral; MS patients on immunosuppressive or immunomodulatory therapies"}, "[4]": {"system": "VEGF-dependent angiogenesis", "conditions": "VEGF-expressing CAMs"}, "[5]": {"system": "Candida", "conditions": "600 mg orally 3 times a day for 15 days"}, "[6]": {"conditions": "humans; not identified at doses used"}, "[7]": {"system": "normal bladder cells", "conditions": "normal physiological range of urine excretion (10 μg/ml)"}, "[8]": {"assay": "not given", "remark": "listed apart in the source"}, "[9]": {"system": "Reuber H35 hepatoma cells", "conditions": "radiation in the presence of genistein; irradiation alone factor 20"}, "[10]": {"system": "human umbilical vein endothelial cells (HUVECs)", "conditions": "10 microM genistein"}, "[11]": {"system": "HTB-186 medulloblastoma cell line"}, "[12]": {"system": "cells in vitro"}, "[13]": {"system": "non-small cell lung cancer", "conditions": "with carboplatin and paclitaxel"}, "[14]": {"system": "non-small cell lung cancer"}, "[15]": {"conditions": "500 mg/m^2/day"}, "[16]": {"system": "ocular neovasculation", "conditions": "primates, systemic, twice weekly"}, "[17]": {"system": "human vascular endothelial cells", "conditions": "doses as low as"}, "[18]": {"system": "Lewis lung carcinoma", "conditions": "mice, day 20"}, "[19]": {"system": "rat 13762 mammary carcinoma", "conditions": "single agent, 40 mg/kg"}, "[20]": {"assay": "not given", "remark": "listed apart in the source"}, "[21]": {"conditions": "cancer patients, 145 patients"}, "[22]": {"assay": "not given", "remark": "listed apart in the source"}}, "note": "“Also recorded” adds a separate entry of the source. Read-outs that look alike come from different tables or passages of the source.", "data": [{"molecule": "O=C(O)CCCCC1CCSS1", "note": "(stereo not drawn) [ALA, alpha-lipoic acid]", "values": [{"measurement": "patients who were responders or high responders", "setting": "[1]", "result": "22 of the 39"}]}, {"molecule": "CC(=O)O[C@H](CC(=O)[O-])C[N+](C)(C)C", "note": "[ALC, Acetyl-L-carnitine]", "values": [{"measurement": "side effects and toxicities", "setting": "[2]", "result": "no toxicities were noted"}, {"measurement": "patients with decreased fatigue intensity", "setting": "[3]", "result": 63, "unit": "%"}]}, {"molecule": "COC1=C(OC)C(=O)C(C/C=C(\\C)CC/C=C(\\C)CC/C=C(\\C)CC/C=C(\\C)CC/C=C(\\C)CC/C=C(\\C)CC/C=C(\\C)CC/C=C(\\C)CC/C=C(\\C)CCC=C(C)C)=C(C)C1=O", "note": "[CoQ10, ubiquinone]", "values": [{"measurement": "prevalence of memory loss on most recent follow-up", "setting": "from 8% on initial visit", "result": 4, "unit": "%"}, {"measurement": "prevalence of peripheral neuropathy on most recent follow-up", "setting": "from 10% on initial visit", "result": 2, "unit": "%"}, {"measurement": "prevalence of dyspnea on most recent follow-up", "setting": "from 58% on initial visit", "result": 12, "unit": "%"}, {"measurement": "prevalence of myalgia on most recent follow-up", "setting": "from 64% on initial visit", "result": 6, "unit": "%"}, {"measurement": "prevalence of fatigue on most recent follow-up", "setting": "from 84% on initial visit, average 240 mg/day, statin discontinued", "result": 16, "unit": "%"}]}, {"molecule": "CC(=O)N[C@@H](CS)C(=O)O", "note": "[NAC, N-Acetyl Cysteine]", "values": [{"measurement": "total vessel number relative to VEGF controls", "setting": "[4]", "result": "nearly half"}, {"measurement": "antifungal activity of peripheral blood monocytes (PBM)", "setting": "[5]", "result": "significantly enhanced"}]}, {"molecule": "COc1cc(/C=C/C(=O)CC(=O)/C=C/c2ccc(O)c(OC)c2)ccc1O", "note": "[curcumin]", "values": [{"measurement": "maximum tolerated dose", "setting": "[6]", "result": "≥ 8000", "unit": "mg per day"}]}, {"molecule": "O=c1c(-c2ccc(O)cc2)coc2cc(O)cc(O)c12", "note": "[genistein, 4′5,7-trihydroxyisoflavone]", "values": [{"measurement": "toxicity to normal bladder cells", "setting": "[7]", "result": "not exhibit toxicity"}, {"measurement": "mean plasma/serum genistein", "setting": "[8]; American study, Western diet", "result": 5.7, "unit": "nmol/L"}, {"measurement": "mean plasma/serum genistein", "setting": "[8]; Japanese study", "result": 248, "unit": "nmol/L"}, {"measurement": "plasma/serum genistein, range", "setting": "[8]; Japanese study", "result": "90 to 1204", "unit": "nmol/L"}, {"measurement": "excretion half-life", "setting": "[8]; with soy supplementation", "result": "seven"}, {"measurement": "factor by which survival was reduced", "setting": "[9]", "result": 10000}, {"measurement": "number of genes with altered expression of more than two fold", "setting": "[10]", "result": 256}, {"measurement": "increase of the antiproliferative effect of cisplatin", "setting": "[11]", "result": 1.3, "unit": "fold"}]}, {"molecule": "Oc1ccc(C=Cc2cc(O)cc(O)c2)cc1", "note": "[resveratrol, 3,4′,5-trihydroxystilbene]", "values": [{"measurement": "levels required for cancer chemopreventive effects in cells in vitro", "setting": "[12]", "result": "at least 5 μM"}]}, {"molecule": "CC(C)[C@@H](CC[C@@H](C)[C@H]1CC[C@H]2[C@@H]3[C@H](O)C[C@H]4C[C@@H](NCCCNCCCCN)CC[C@]4(C)[C@H]3CC[C@]12C)OS(=O)(=O)O", "note": "[squalamine]", "values": [{"measurement": "objective responses, patients", "setting": "[13]; 300 mg/m^2/day for one or more cycles, response = 50% or greater reduction in tumor size", "result": 36, "unit": "%"}, {"measurement": "patients with an objective response", "setting": "[13]; all patients (11 of 36)", "result": "Thirty-one"}, {"measurement": "patients with dose-limiting toxicity", "setting": "[14]; 400 mg/m^2/day, arthralgia, myalgia, neutropenia", "result": "two of three"}, {"measurement": "tolerability", "setting": "[14]; continuously daily for 5 days with paclitaxel and carboplatin on day 1", "result": "well tolerated"}, {"measurement": "plasma concentrations relative to those required for antiangiogenic effects in preclinical studies", "setting": "[15]", "result": "at least an order of magnitude higher"}, {"measurement": "tolerability", "setting": "[15]", "result": "well tolerated"}, {"measurement": "dose producing inhibition of ocular neovasculation and partial regression of new vessels", "setting": "[16]", "result": 12, "unit": "mg/m^2"}, {"measurement": "dose that halted proliferation of human vascular endothelial cells", "setting": "[17]", "result": 160, "unit": "nM"}, {"measurement": "number of lung metastases relative to controls", "setting": "[18]", "result": "reduced to half; also recorded: reduced by half"}, {"measurement": "tumor growth delay", "setting": "[19]", "result": "modest effect"}, {"measurement": "tolerability", "setting": "[20]; 384 mg/m^2/day, patients without prior exposure to squalamine", "result": "well-tolerated"}, {"measurement": "best-tolerated dose", "setting": "[20]; continuous intravenous infusion over 120 h, every 14 days, 19 patients", "result": 192, "unit": "mg/m^2/day"}]}, {"molecule": "O=c1[nH]c(=O)n(C2CCCO2)cc1F", "note": "(stereo not drawn) [tegafur alone, tegafur]", "values": [{"measurement": "50% survival time", "setting": "[21]", "result": 92, "unit": "days"}]}, {"molecule": "Cyanocobalamin [vitamin B12]", "values": [{"measurement": "amount excreted in the normal urine daily", "setting": "[22]; in vivo", "result": "About 30 mcg"}, {"measurement": "quantity excreted", "setting": "[22]; injected in a large dose up to 100 mcg", "result": "up to 90%"}]}, {"molecule": "angiostatin", "values": [{"measurement": "total vessel number relative to VEGF controls", "setting": "[4]", "result": "nearly half"}]}]}
